In PubChem BioAssay (NCI):
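Interpolation was linear, between the two tested concentrations surrounding the appropriate level; five concentrations were tested over 48 hours in 96-well plates. TGI is the concentration that stops growth completely.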

Assays:
Assay in all cases: NCI tumour cell line growth inhibition, 48 h
OVCAR-8 ovarian = system: OVCAR-8 ovarian
UO-31 renal = system: UO-31 renal
TK-10 renal = system: TK-10 renal
NCI/ADR-RES ovarian = system: NCI/ADR-RES ovarian
OVCAR-3 ovarian = system: OVCAR-3 ovarian
UACC-62 melanoma = system: UACC-62 melanoma
MALME-3M melanoma = system: MALME-3M melanoma
CAKI-1 renal = system: CAKI-1 renal
NCI-H23 lung = system: NCI-H23 lung
UACC-257 melanoma = system: UACC-257 melanoma
M14 melanoma = system: M14 melanoma
NCI-H226 lung = system: NCI-H226 lung
SN12C renal = system: SN12C renal
HS 578T breast = system: HS 578T breast
BT-549 breast = system: BT-549 breast
LOX IMVI melanoma = system: LOX IMVI melanoma
SNB-75 CNS = system: SNB-75 CNS
SR leukemia = system: SR leukemia

| Compound | TGI (OVCAR-8 ovarian) [µM] | TGI (UO-31 renal) [µM] | TGI (TK-10 renal) [µM] | TGI (NCI/ADR-RES ovarian) [µM] | TGI (OVCAR-3 ovarian) [µM] | TGI (UACC-62 melanoma) [µM] | TGI (MALME-3M melanoma) [µM] | TGI (CAKI-1 renal) [µM] | TGI (NCI-H23 lung) [µM] | TGI (UACC-257 melanoma) [µM] | TGI (M14 melanoma) [µM] | TGI (NCI-H226 lung) [µM] | TGI (SN12C renal) [µM] | TGI (HS 578T breast) [µM] | TGI (BT-549 breast) [µM] | TGI (LOX IMVI melanoma) [µM] | TGI (SNB-75 CNS) [µM] | TGI (SR leukemia) [µM] |
| --- | --- | --- | --- | --- | --- | --- | --- | --- | --- | --- | --- | --- | --- | --- | --- | --- | --- | --- |
| CC1(C)OC(=O)C2(O1)C(=O)C1CCCCC12 (configuration not stated) | > 100 | > 100 | > 100 | > 100 | > 100 | > 100 | > 100 | > 100 | > 100 | > 100 | > 100 | > 100 | > 100 | > 100 | > 100 |  |  |  |
| CC(C)/C(Cl)=N\OC(=O)Nc1ccc(F)cc1F | 31.6 | 17.8 | 9.55 | 21.2 | 6.69 | 38.7 | 3.58 | 34.3 | 30.1 | 27.7 | 13.3 | 29.8 | 21.1 | 52.7 | 25.9 | 3.32 | 33.6 |  |
| Cc1ccc2c(c1)-c1c(C#N)c(N)nc(-c3ccccc3)c1CCS2(=O)=O | > 95.5 | 97 | > 100 | > 46.5 | > 100 | > 100 | > 100 | > 100 | > 62.7 | > 100 | > 100 | > 30.2 | > 100 | > 47.6 | > 43.4 | > 100 | 59.2 |  |
| Cc1ccc(S(=O)(=O)Nn2c(S)c(C#N)c(-c3ccc([N+](=O)[O-])cc3)c(C#N)c2=O)cc1 | > 100 |  | > 100 | > 100 |  | 98.2 | > 100 | > 100 |  | > 100 | > 100 | > 100 | 37.3 | 86.5 | 29.6 | 28.5 | > 100 |  |
| Cc1ccc(S(=O)(=O)NNC2(NS(=O)(=O)c3ccc(Cl)cc3)C(Cl)=C(Cl)C(=O)c3ccccc32)cc1 (configuration not stated) | 87.8 | 42.5 | 30.5 | 89.8 | 42.1 | 31 | 33.2 | 32.4 | 34.1 | 32.6 | 33 |  | 31.6 | 54.8 | 29.1 | 65.1 |  |  |
| O=C1[C@@H]2C[C@@H](O)CN2C(=O)c2ccccc2N1CCCO | > 100 | > 100 | > 100 | > 100 | > 100 | > 100 |  |  |  | > 100 | > 100 | > 100 | > 100 | > 100 |  | > 100 | > 100 |  |
| C/C(CC1SCCCS1)=C(/C)CC1SCCCS1 | > 100 | > 100 | > 100 | > 100 | > 100 | > 100 | > 100 | > 100 | > 100 |  | > 100 | > 100 | > 100 | > 100 |  | > 100 | > 100 | > 100 |
| CC(=O)N(CN1C(=O)CCC1C(=O)O)c1cccc(O)c1 (configuration not stated) | > 100 | > 100 | > 100 | > 100 | > 100 | > 100 | > 100 | > 100 | > 100 | > 100 | > 100 | > 100 | > 100 | > 100 |  | > 100 | > 100 |  |
| Nc1ncnc2c1cnn2Cc1cn(COCC(O)CO)nn1 (configuration not stated) | > 100 | > 100 | > 100 | > 100 | > 100 | > 100 |  | > 100 | > 100 | > 100 | > 100 |  | > 100 | 32.8 | > 100 | > 100 |  |  |
| C[n+]1cccc2ccc(OC(=O)c3ccccc3)cc21 | > 100 | > 100 | > 100 | > 100 | > 100 | > 100 | > 100 | > 100 | > 100 | > 100 | > 100 | > 100 | > 100 | > 100 |  | > 100 | > 100 |  |
| CC(C)C12C=CC(C)(CC1)n1c(=O)c3cc4ccccc4cc3c(=O)n12 (configuration not stated) | > 100 | 96.6 | 94 |  | > 100 |  | > 100 | > 100 | > 100 | > 100 | > 100 | > 100 | > 100 |  |  | > 100 | > 100 | > 100 |
| O=c1oc(-c2ccccc2)c(-c2ccccc2)n1-c1ccc(Br)cc1 | > 100 | > 100 | > 100 |  | > 100 | > 100 |  | > 100 | 85.3 | > 100 | > 100 | > 100 | > 100 | > 100 | > 100 | > 100 | 32.2 |  |
| O=c1c2cn[nH]c2nc2scc(-c3ccc(Cl)cc3)n12 | > 100 | > 100 | > 100 | > 100 | > 100 | > 100 | > 100 | > 100 | > 100 | > 100 | > 100 | > 100 | > 100 | > 100 |  | > 100 | > 100 | > 100 |
| Cn1cnc(N2CCCC2)c(C#N)c1=O | > 100 | > 100 | > 100 | > 100 | > 100 | > 100 | > 100 | > 100 | > 100 | > 100 | > 100 | > 100 | > 100 | > 100 |  | > 100 |  | > 100 |
| CN(CCCN(C)CCc1ccc(Cl)c(Cl)c1)CCCN1CCCC1 | 10.9 | 2.76 | 5.52 | 19.8 | 14.8 | 3.49 | 3.83 | 6.33 | 14.3 | 3.46 | 3.66 | 5.68 | 11.8 | 4.31 | 19 | 3.54 | 8.91 |  |
